Like-named read-outs stand apart in the source and are kept apart here. Non-standard residues stand in square brackets, D forms with d. No end group written: not given here.
Experiments:
candida krusei = assay: microbe, parasite or virus in culture; assay type: cell-based
Text: • (1) Test strains: monilia albicans (candida albicans), candida glabrata, candida krusei, candida tropicalis, aspergillus fumigatus and flavous. (2) Quality control strains: candida krusei JLC30366 (ATCC6258). Antimicrobial peptides PL-13 (SEQ ID NO: 1) under test are supplied by Jiangsu ProteLight Pharmaceutical & Biotechnology Co., LTD. […] (1) The bacterial strains which preserved on PDA slant are respectively inoculated onto PDA plate and slant medium. Activation of bacterial strains is conducted at a humidity level of 60% and 25° C. (for aspergillus) or 37° C. (for candida). (2) 0.9% stroke-physiological saline solution comprising 0.5% Tween-80 is used to prepare bacterial suspension for experiment. Hemocytometer is utilized to adjust concentration of the bacterial suspension to 1-3×10^6 CFU/ml (0.5 McFarland units) to make stock solution in reserve at -20° C. During the sensitivity test, the RPMI-1640 liquid medium is diluted 1000 times to 1-3×10^3 CFU/ml. (3) The RPMI-1640 liquid is utilized as diluent to 10-fold dilute stock solution of peptides. […] The eleventh orifice is used as living control orifice, while the twelfth one as blank control. (4) The RPMI-1640 liquid is utilized as diluent to 10-fold dilute stock solution of FCZ and ICZ. […] Ditto for other operations.

Shigella = assay: microbe, parasite or virus in culture; assay type: cell-based
Protocol: (§1) The experimental strains are 37 standard strains preserved in lab and clinical isolated bacteria, including drug-resistant bacteria and quality-control bacteria selecting Staphylococcus aureus ATCC29213, Enterococcus faecalis ATCC29212, Escherichia coli ATCC25922, Pseudomonas aeruginosa ATCC27853 and klebsiella pneumoniae ATCC700603.
(§2) (1) Sensitivity test is conducted with two-fold agar dilution method and Denlay multipoint inoculator. Test bacteria are cultured with nutrient broth and brain heart infusion.
(§3) (2) The drug is double diluted into different concentration with MH broth after dissolved and then placed in the plate respectively.
(§4) (3) After dissolved, MH agar culture medium are injected into the plate with drug quantitatively and mixed to make the final concentration of drug are 0.03, 0.06, 0.125, . . . , 128 μg/ml respectively.
(§5) (4) After solidification of the culture medium in the plate, test bacteria (10^4CFU/point) are inoculated by multipoint inoculator and cultured for 18 hours at constant 35° C. Then observe the results.

Serratia marcescens = assay: microbe, parasite or virus in culture; assay type: cell-based
Protocol: as §1, §2, §3, §4, §5

Shigella flexneri = assay: microbe, parasite or virus in culture; assay type: cell-based
Protocol: as §1, §2, §3, §4, §5

Proteus vulgaris = assay: microbe, parasite or virus in culture; assay type: cell-based
Protocol: as §1, §2, §3, §4, §5

Enterobacter aerogenes = assay: microbe, parasite or virus in culture; assay type: cell-based
Protocol: as §1, §2, §3, §4, §5

[1] = tested on: Staphylococcus epidermidis; assay: microbe, parasite or virus in culture; assay type: cell-based
Protocol: as §1, §2, §3, §4, §5

Enterobacter cloacae = assay: microbe, parasite or virus in culture; assay type: cell-based
Protocol: as §1, §2, §3, §4, §5

Escherichia coli = assay: microbe, parasite or virus in culture; assay type: cell-based; details: 08-5 (ESBLs) Extended Spectyumβ-lactamase
Protocol: as §1, §2, §3, §4, §5

Typhoid bacillus H901 = assay: microbe, parasite or virus in culture; assay type: cell-based
Protocol: as §1, §2, §3, §4, §5

Feilaoti citrobacter = assay: microbe, parasite or virus in culture; assay type: cell-based
Protocol: as §1, §2, §3, §4, §5

[2] = tested on: Acinetobacter calcoaceticus; assay: microbe, parasite or virus in culture; assay type: cell-based
Protocol: as §1, §2, §3, §4, §5

Salmonella typhimurium = assay: microbe, parasite or virus in culture; assay type: cell-based; details: murium
Protocol: as §1, §2, §3, §4, §5

Shigella sonnei = assay: microbe, parasite or virus in culture; assay type: cell-based; details: Shigella sonnei strains 51592
Protocol: as §1, §2, §3, §4, §5

Staphylococcus aureus = assay: microbe, parasite or virus in culture; assay type: cell-based
Protocol: as §1, §2, §3, §4, §5

aspergillus fumigatus = assay: microbe, parasite or virus in culture; assay type: cell-based
Protocol: (§6) • (1) Test strains: monilia albicans (candida albicans), candida glabrata, candida krusei, candida tropicalis, aspergillus fumigatus and flavous. Antimicrobial peptides PL-13 (SEQ ID NO: 1) under test are supplied by Jiangsu ProteLight Pharmaceutical & Biotechnology Co., LTD. […] Activation of bacterial strains is conducted at a humidity level of 60% and 25° C. (for aspergillus) or 37° C. (for candida). (2) 0.9% stroke-physiological saline solution comprising 0.5% Tween-80 is used to prepare bacterial suspension for experiment. Hemocytometer is utilized to adjust concentration of the bacterial suspension to 1-3×10^6 CFU/ml (0.5 McFarland units) to make stock solution in reserve at -20° C. During the sensitivity test, the RPMI-1640 liquid medium is diluted 1000 times to 1-3×10^3 CFU/ml. (3) The RPMI-1640 liquid is utilized as diluent to 10-fold dilute stock solution of peptides. […] The eleventh orifice is used as living control orifice, while the twelfth one as blank control. (4) The RPMI-1640 liquid is utilized as diluent to 10-fold dilute stock solution of FCZ and ICZ. […] Ditto for other operations.

aspergillus flavous = assay: microbe, parasite or virus in culture; assay type: cell-based
Protocol: as §6

[3] = tested on: red cell suspension from healthy volunteers; assay: Hemolytic activity test; assay type: cell-based, human; details: for Hemolytic activity, absorbancy (OD value) at 570 nm: 4 hours at 37° C., OD higher than 0.1 is hemolytic, n = 3
Protocol: (1) Samples are serial diluted with sterile PBS to 1000, 500, 250, 125, 64, 32, 16, 8, 4 μg/ml in turn and spread in 96-well plates, 100 μl per orifice.
(2) We use distilled water as positive control, sterile PBS as negative control and blank orifice with 200 μl PBS solution added. Each concentration above is made in triplicate.
(3) We take 3 ml whole blood from healthy volunteers and washed it with sterile PBS three times to prepare fresh 2% concentration red cell suspension. Then we added 100 μl red cell suspension into each orifice and made them cultured for 4 hours at 37° C. in the incubator. After centrifuged by plate-swashing centrifuge, the supernatant liquid is collected and measured absorbancy (OD value) at a wavelength of 570 nm. Then we compared the hemolytic efficiency of these concentrations.
(4) According to the documents standard, OD value which is higher than 0.1 is hemolytic concentration.

PL-18 (SEQ ID NO: 1) = assay: RP-HPLC temperature profiling 5-80 C, normalised to random coil peptide C; self-association of the peptide with itself
PL-43 (SEQ ID NO: 24) = assay: as above
PL-51 (SEQ ID NO: 30) = assay: as above
PL-40 (SEQ ID NO: 18) = assay: as above
PL-34 (SEQ ID NO: 6) = assay: as above

## Ac-FKKLKKLFSKLLNLK-NH2 [PL-26]
Candida krusei
  Minimal inhibitory concentration: 8 µg/mL
Shigella
  MIC: 0.3 µM
Serratia marcescens
  MIC: 0.02 µM
Shigella flexneri
  MIC: 1.3 µM
Proteus vulgaris
  MIC: 6.7 µM
Enterobacter aerogenes
  MIC: 1.3 µM
[1]
  MIC: 0.7 µM
[1]; 08-17 (MSSE) Meticillin susceptible staphylococcus epidermidis
  MIC: 2.7 µM
[1]; 08-18 (MRSE) Methicillin-resistant staphylococcus epidermidis
  MIC: 2.7 µM
Enterobacter cloacae
  MIC: 1.7 µM
Escherichia coli
  MIC: 1.3 µM
Typhoid bacillus H901
  MIC: 2.7 µM
Feilaoti citrobacter
  MIC: 2.7 µM
[2]
  MIC: 6.7 µM
Salmonella typhimurium
  MIC: 5.3 µM
Shigella sonnei
  MIC: 1.3 µM
Staphylococcus aureus; 08-49(MSSA) Meticillin susceptible staphylococcus aureus
  MIC: 1.3 µM
Staphylococcus aureus; 08-52(MRSA) Methicillin-resistant staphylococcus aureus
  MIC: 1.3 µM
Staphylococcus aureus; Staphylococcus aureus ATCC25923
  MIC: 1.3 µM
Staphylococcus aureus; Staphylococcus aureus ATCC29213
  MIC: 1.3 µM
Staphylococcus aureus; strain 15 (listed under Staphylococcus aureus)
  MIC: 1.3 µM
Aspergillus fumigatus
  Minimal inhibitory concentration: 32 µg/mL
Aspergillus flavous
  Minimal inhibitory concentration: >64 µg/mL
[3]; peptide 7.8125 μg/ml
  Hemolytic activity, absorbancy (OD value) at 570 nm: 0.020
[3]; peptide 15.625 μg/ml
  Hemolytic activity, absorbancy (OD value) at 570 nm: 0.047
[3]; peptide 31.25 μg/ml
  Hemolytic activity, absorbancy (OD value) at 570 nm: 0.057
[3]; peptide 62.5 μg/ml
  Hemolytic activity, absorbancy (OD value) at 570 nm: 0.068
[3]; peptide 125 μg/ml
  Hemolytic activity, absorbancy (OD value) at 570 nm: 0.075
[3]; peptide 250 μg/ml
  Hemolytic activity, absorbancy (OD value) at 570 nm: 0.089
[3]; peptide 500 μg/ml
  Hemolytic activity, absorbancy (OD value) at 570 nm: 0.121
[3]; peptide 1000 μg/ml
  Hemolytic activity, absorbancy (OD value) at 570 nm: 0.327
[3]; summary of Table 9
  hemolytic toxicity (in words): little hemolytic toxicity

B1: PL-18 (SEQ ID NO: 1) (peptide)
peptide: Ac-[dF][dK][dK][dL][dK][dK][dL][dF][dS][dK][dL][dW][dN][dW][dK]-NH2
SMILES: CC(=O)N[C@H](Cc1ccccc1)C(=O)N[C@H](CCCCN)C(=O)N[C@H](CCCCN)C(=O)N[C@H](CC(C)C)C(=O)N[C@H](CCCCN)C(=O)N[C@H](CCCCN)C(=O)N[C@H](CC(C)C)C(=O)N[C@H](Cc1ccccc1)C(=O)N[C@H](CO)C(=O)N[C@H](CCCCN)C(=O)N[C@H](CC(C)C)C(=O)N[C@H](Cc1c[nH]c2ccccc12)C(=O)N[C@H](CC(N)=O)C(=O)N[C@H](Cc1c[nH]c2ccccc12)C(=O)N[C@H](CCCCN)C(N)=O
PL-18 (SEQ ID NO: 1)
  PA (self-association parameter): 0.56 min

B2: PL-43 (SEQ ID NO: 24) (peptide)
peptide: [dF][dK][dK][dF][dK][dK][dL][dL][dS][dK][dL][dW][dN][dW][dK]
PL-43 (SEQ ID NO: 24)
  PA (self-association parameter): 1.65 min

B3: PL-51 (SEQ ID NO: 30) (peptide)
peptide: [dL][dF][dK][dK][dL][dK][dK][dL][dF][dS][dK][dL][dW][dN][dW][dK]
PL-51 (SEQ ID NO: 30)
  PA (self-association parameter): 1.63 min

B4: PL-40 (SEQ ID NO: 18) (peptide)
peptide: [dK][dL][dK][dK][dL][dF][dS][dK][dL][dW][dN][dW][dK]
PL-40 (SEQ ID NO: 18)
  PA (self-association parameter): 0.55 min

B5: PL-34 (SEQ ID NO: 6) (peptide)
peptide: [dF][dK][dK][dL][dK][dK][dK][dF][dS][dK][dL][dW][dN][dW][dK]
PL-34 (SEQ ID NO: 6)
  PA (self-association parameter): 0.81 min
